Legend:
[1] = molecular target: T1, GAL4-PPARγ fusion protein (Homo sapiens, UniProt P37231); assay: PPARγ activity in transfected HEK293 cells (beta-lactamase reporter); format: cell-based; conditions: FIG. 13: 1 μM
T1 construct: host or cells: HEK293 (human embryonic kidney), stably transfected
Procedure, shortened: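 HEK293 cells stably expressing GAL4-DBD/PPARγ-LBD fusion with beta-lactamase reporter, treated with compound at 1, 5 and 10 μM for 16-18 h. Beta-lactamase read via FRET substrate (2 h, room temperature), ex 409 nm, em 460/530 nm; background-subtracted emission ratio.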

[2] = tested on: PGE2 synthesis in RAW 264.7 murine macrophages; assay: LPS-induced PGE2 synthesis in RAW 264.7 murine macrophages; format: cell-based, mouse; conditions: 10 μM; relative to vehicle alone; FIG. 3
Description: (§1) The mouse macrophage cell line RAW 264.7 was cultured in DMEM supplemented with foetal calf serum (FCS), […] glutamine and 50 U/ml penicillin/streptomycin. Cells were treated with either test compound (in 0.025% DMSO) or vehicle alone, and added one hour before 50 ng/ml LPS. After incubation for 24 h, culture media was collected for PGE2 or TXB2 measurement by ELISA (Cayman Chemical), and TNFα measurement using an ELISA (Becton Dickinson). Test compounds were examined a concentration of 10 μM. […] Consequently, to assess the effect of test compounds on various analytes, cell viability was taken into consideration with the use of the formula: Actual effect of test compound=measured effect−(effect on cell viability×measured effect)

T cells = assay: T cell proliferation (ConA-stimulated mouse splenocytes, MTT); format: cell-based, Skh-1:HR 1 (hairless) mice; conditions: 10 μM, 3 days
Description: (§2) Male Skh-1:HR 1 (hairless) mice, approximately six weeks old were killed by cervical dislocation. Single cell suspensions were made from the spleen and erythrocytes were lysed in buffer (0.14 M NH4Cl, 17 mM Tris, pH 7.2). The remaining splenocytes were cultured in RPMI-1640 (Gibco) supplemented with 10% (v:v) FBS, 200 mM L-glutamine, penicillin/streptomycin and […] 2-mercaptoethanol. Splenocytes were added to quadruplicate wells containing either concanavalin A (ConA, Sigma-Aldrich—0.4 μg/well), LPS (Sigma-Aldrich—1 μg/well) or no mitogen, as well 10 μM of test compound in DMSO. Samples were analysed after 3 days incubation at 37° C. in 5% CO2 in air. Methylthiazoletetrazolium (MTT) is bioreduced by viable cells into a coloured formazan product that is soluble in DMSO. Thus the quantity of formazan product is directly proportional to the number of living cells in culture, and can be measured using a spectrophotometer at 570 nm. MTT was added to each well, incubated for a further 4 hrs and then colour developed with 0.04 N HCl in isopropanol. Culture supernatants were stored after collection at −80° C. and analysed by ELISA (BD Biosciences) for IFN-γ (a Th-1 cytokine) and for T cells alone, IL-6 (a Th-2 cytokine).

[3] = tested on: TXB2 synthesis in RAW 264.7 murine macrophages; assay: LPS-induced TXB2 synthesis in RAW 264.7 murine macrophages; format: cell-based, mouse; conditions: 10 μM; relative to vehicle alone; FIG. 4
Description: as §1

IFN-γ = IFN-γ synthesis by mouse splenocytes (ELISA); format: cell-based, Skh-1:HR 1 (hairless) mice; conditions: 10 μM; 3 days
Description: as §2

VCAM = assay: TNFα-induced VCAM expression in human arterial endothelial cells (ELISA); format: cell-based; conditions: HAEC; 10 μM found most appropriate for comparing
Description: Inhibition of TNFα-stimulated endothelial cell activation by compounds was assessed by measuring surface expression of cell adhesion molecules with an ELISA method. Human arterial endothelial cells (HAEC) in growth medium (Cell Applications Inc.) were seeded into 96-well plates at a density of 10,000 cells per well. Plates were incubated overnight at 37° C. in a humidified incubator to allow for cells to become confluent. On the morning of the experiment, TNFα (10 μl, 2 ng/ml) was added to each well, which contained 100 μl of medium. Compounds were diluted in DMSO-containing medium (2.5% DMSO) to give a compound concentration of 100 and 300 μM. Compounds were added to wells so that final concentrations were 10 and 30 μM. DMSO-containing medium alone was added to zero concentration control wells. All samples were measured in quadruplicate (4 wells per treatment).
After incubation with compound, medium was removed and cells were probed with either non-specific IgG or specific mouse antibodies against E-selectin, ICAM or VCAM (BD Biosciences—0.1 μg in 100 μL buffered saline with 10% heat-inactivated human serum). Adhesion molecule expression was detected by addition of sheep anti-mouse antibody/horseradish peroxidase conjugate. […] Optical density was measured at 405 nm with an ELISA reader (Titertek Multiscan, Flow Laboratories). […]

T1 sequence (P37231 238-503 limits assumed): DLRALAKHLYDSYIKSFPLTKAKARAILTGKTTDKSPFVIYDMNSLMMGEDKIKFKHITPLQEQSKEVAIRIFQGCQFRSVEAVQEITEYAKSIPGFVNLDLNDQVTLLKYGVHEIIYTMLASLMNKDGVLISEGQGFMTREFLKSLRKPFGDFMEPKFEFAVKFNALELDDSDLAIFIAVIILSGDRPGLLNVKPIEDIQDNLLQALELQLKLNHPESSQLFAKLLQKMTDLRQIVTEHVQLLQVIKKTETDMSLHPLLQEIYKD
T1 sequence (P04386 1-147 partner limits assumed): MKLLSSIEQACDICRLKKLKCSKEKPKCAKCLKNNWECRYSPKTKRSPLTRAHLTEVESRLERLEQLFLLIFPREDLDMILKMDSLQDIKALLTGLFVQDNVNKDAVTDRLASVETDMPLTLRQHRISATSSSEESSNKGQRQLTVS

## CC(c1ccccc1)N1COc2cc3c(cc2C1)C=C(c1ccc(O)cc1)CO3 (stereo not drawn) [Compound 2, 4-(3-(1-Phenylethyl)-2,3,4,8-tetrahydrochromeno[6,7-e][1,3]oxazin-7-yl)phenol]
[1]
  PPARγ activation, increase in beta-lactamase activity over media only control: PPARγ agonist activity
[2]
  mean change of LPS-induced PGE2 synthesis: greatest inhibition
T cells
  effect on T cells: markedly and significantly immunosuppressive
[3]
  mean change of LPS-induced TXB2 synthesis: greatest inhibition
IFN-γ
  synthesis of INF-γ into the supernatant: concomitant reduction

## Oc1cccc(C2=Cc3ccc(O)cc3OC2)c1 [Compound 37-DHE, 3′,7-dihydroxy-isoflav-3-ene, reference compound]
VCAM
  effect on TNFα-induced VCAM expression: less pronounced

Source: patent US8367659B2, “Oxazinyl isoflavonoid compounds, medicaments and use” (Marshall Edwards, Inc., priority 2007, dated 2013)
